According to US20030091557A1, “Methods and compositions for modulating ACE-2 activity” (priority 2001, published 2003):
Where a SMILES comes first, the peptide text is derived from it. Bridges are numbered along the chain shown (N, C = ends).

molecular target: ACE-2 (Homo sapiens, UniProt Q9BYF1); assay: Fluorometric ACE-2 inhibition assay with peptide M-2195 as substrate; format: biochemical; set-up: nucleotides corresponding to the extracellular domain (M1-S740); FLAG; made in house; host or cells: Sf9 insect cells, recombinant baculovirus (transfer vector pA2); enzyme purified from conditioned media; details: ACE-2, M-2195 substrate
Experimental: Substrate stock (10 μL of 10× concentration) was added to each well to be tested in blocks of three vertically down the plate. The reaction was monitored on a Spectrafluor Plus (Tecan) at an excitation wavelength of 340 nm and an emission wavelength of 400 nm (+/−35 nm) every 30 seconds for a time period of 10 minutes.
ACE-2 cleaves off the C-terminal lysine from the peptide with a concomitant increase in fluorescence signal.
The assays were performed in 96-well clear-bottom black plates (Costar, 07-200-590). In each well, 0.45 μg (5 pmoles) of ACE-2 is added to 90 μL of an assay solution containing 100 mM TRIS at pH 7.4, 0.1% Tween, and 0.4% DMSO. Substrate stock at 10 μL of 10× concentration is added to each well (for example, 10 μL of 1 mM stock for a final 100 μM concentration). The reaction was monitored on a Spectrafluor Plus (Tecan) at an excitation wavelength of 340 nm and an emission wavelength of 400 nm (+/−35 nm) every 30 seconds up to 10 minutes. All samples were measured in triplicate. […]

ACE-2, sequence (Q9BYF1 18-740): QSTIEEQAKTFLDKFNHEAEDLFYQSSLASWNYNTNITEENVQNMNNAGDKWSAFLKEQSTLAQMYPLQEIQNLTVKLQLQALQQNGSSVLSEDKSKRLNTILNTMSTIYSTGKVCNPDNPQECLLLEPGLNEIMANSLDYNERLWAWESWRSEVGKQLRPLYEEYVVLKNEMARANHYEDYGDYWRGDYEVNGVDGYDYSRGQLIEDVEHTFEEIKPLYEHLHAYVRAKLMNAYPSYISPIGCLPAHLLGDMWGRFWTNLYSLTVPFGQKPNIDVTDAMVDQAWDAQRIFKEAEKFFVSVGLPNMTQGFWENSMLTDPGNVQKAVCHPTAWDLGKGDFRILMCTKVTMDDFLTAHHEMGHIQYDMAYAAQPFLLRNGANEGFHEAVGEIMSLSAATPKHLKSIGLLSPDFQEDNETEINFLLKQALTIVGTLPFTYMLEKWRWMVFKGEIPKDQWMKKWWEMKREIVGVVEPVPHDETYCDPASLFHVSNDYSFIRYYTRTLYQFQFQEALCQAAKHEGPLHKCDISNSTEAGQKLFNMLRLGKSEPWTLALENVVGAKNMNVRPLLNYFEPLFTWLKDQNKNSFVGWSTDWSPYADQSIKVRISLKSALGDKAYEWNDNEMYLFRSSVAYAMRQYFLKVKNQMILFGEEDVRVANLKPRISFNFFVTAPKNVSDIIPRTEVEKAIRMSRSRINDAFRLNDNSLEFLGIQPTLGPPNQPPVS

Compound	Ki [nM]
CSCC[C@@H]1NC(=O)[C@H](Cc2c[nH]c3ccccc23)NC(=O)[C@@H]2CCCN2C(=O)[C@H](CO)NC(=O)[C@H](CCC(N)=O)NC(=O)[C@H](CCCNC(=N)N)NC(=O)[C@H](CCC(N)=O)NC(=O)[C@@H]2CCCN2C(=O)[C@H](CCCCN)NC(=O)[C@@H](NC(=O)[C@H](Cc2c[nH]cn2)NC(=O)[C@H](CC(C)C)NC(=O)[C@H](CCCNC(=N)N)NC(=O)[C@H](CC(=O)O)NC(=O)CNC(C)=O)CSSC[C@@H](C(=O)N[C@@H](CCC(N)=O)C(=O)N[C@@H](Cc2c[nH]cn2)C(=O)N[C@@H](CC(C)C)C(=O)N[C@@H](CC(=O)O)C(=O)N2CCC[C@H]2C(=O)N[C@@H](CCC(=O)O)C(=O)NCC(=O)NCC(=O)NCC(N)=O)NC(=O)[C@H](CCCCN)NC1=O [DX-512] (Ac-GDRLHCKPQRQSPWMKCQHLDPEGGG-NH2; disulfide 6-17)	150
CC(=O)NCC(=O)N[C@@H](CC(=O)O)C(=O)N[C@@H](CC(C)C)C(=O)N[C@@H](Cc1c[nH]cn1)C(=O)N[C@@H](C)C(=O)N[C@H]1CSSC[C@@H](C(=O)N[C@H](C(=O)N[C@@H](CC(C)C)C(=O)NCC(=O)N[C@@H](CC(=O)O)C(=O)N2CCC[C@H]2C(=O)N[C@@H](CCC(=O)O)C(=O)NCC(=O)NCC(=O)NCC(N)=O)[C@@H](C)O)NC(=O)[C@H](C)NC(=O)[C@H](Cc2c[nH]c3ccccc23)NC(=O)[C@H](Cc2c[nH]c3ccccc23)NC(=O)[C@@H]2CCCN2C(=O)[C@H](CC(=O)O)NC(=O)CNC(=O)[C@H](CCCNC(=N)N)NC(=O)[C@H](C(C)C)NC(=O)[C@@H]2CCCN2C(=O)[C@H](CCCNC(=N)N)NC1=O [DX-513] (Ac-GDLHACRPVRGDPWWACTLGDPEGGG-NH2; disulfide 6-17)	150

same assay, conditions: inhibition of ACE-2 activity, M-2195 substrate; class by % inhibition at ~100 μM and IC50

Compound	Inhibition
CSCC[C@@H]1NC(=O)[C@H](Cc2c[nH]c3ccccc23)NC(=O)[C@@H]2CCCN2C(=O)[C@H](CO)NC(=O)[C@H](CCC(N)=O)NC(=O)[C@H](CCCNC(=N)N)NC(=O)[C@H](CCC(N)=O)NC(=O)[C@@H]2CCCN2C(=O)[C@H](CCCCN)NC(=O)[C@@H](NC(=O)[C@H](Cc2c[nH]cn2)NC(=O)[C@H](CC(C)C)NC(=O)[C@H](CCCNC(=N)N)NC(=O)[C@H](CC(=O)O)NC(=O)CNC(C)=O)CSSC[C@@H](C(=O)N[C@@H](CCC(N)=O)C(=O)N[C@@H](Cc2c[nH]cn2)C(=O)N[C@@H](CC(C)C)C(=O)N[C@@H](CC(=O)O)C(=O)N2CCC[C@H]2C(=O)N[C@@H](CCC(=O)O)C(=O)NCC(=O)NCC(=O)NCC(N)=O)NC(=O)[C@H](CCCCN)NC1=O [DX-512] (Ac-GDRLHCKPQRQSPWMKCQHLDPEGGG-NH2; disulfide 6-17)	++++ (signifies very strong inhibition (˜100% inhibition at 100 μM; with IC50 0.15 μM))
CC(=O)NCC(=O)N[C@@H](CC(=O)O)C(=O)N[C@@H](CC(C)C)C(=O)N[C@@H](Cc1c[nH]cn1)C(=O)N[C@@H](C)C(=O)N[C@H]1CSSC[C@@H](C(=O)N[C@H](C(=O)N[C@@H](CC(C)C)C(=O)NCC(=O)N[C@@H](CC(=O)O)C(=O)N2CCC[C@H]2C(=O)N[C@@H](CCC(=O)O)C(=O)NCC(=O)NCC(=O)NCC(N)=O)[C@@H](C)O)NC(=O)[C@H](C)NC(=O)[C@H](Cc2c[nH]c3ccccc23)NC(=O)[C@H](Cc2c[nH]c3ccccc23)NC(=O)[C@@H]2CCCN2C(=O)[C@H](CC(=O)O)NC(=O)CNC(=O)[C@H](CCCNC(=N)N)NC(=O)[C@H](C(C)C)NC(=O)[C@@H]2CCCN2C(=O)[C@H](CCCNC(=N)N)NC1=O [DX-513] (Ac-GDLHACRPVRGDPWWACTLGDPEGGG-NH2; disulfide 6-17)	++++ (signifies very strong inhibition (˜100% inhibition at 100 μM; with IC50 0.15 μM))
CC[C@H](C)[C@H](NC(=O)[C@H](CCCNC(=N)N)NC(=O)[C@H](CO)NC(=O)CNC(C)=O)C(=O)NCC(=O)N[C@H]1CSSC[C@@H](C(=O)N[C@@H](CC(N)=O)C(=O)N[C@@H](Cc2c[nH]c3ccccc23)C(=O)N[C@@H](Cc2c[nH]c3ccccc23)C(=O)N[C@@H](C)C(=O)N2CCC[C@H]2C(=O)NCC(=O)N[C@@H](CCC(=O)O)C(=O)NCC(=O)NCC(=O)NCC(N)=O)NC(=O)[C@H](CCCNC(=N)N)NC(=O)[C@H](CO)NC(=O)[C@H](CC(=O)O)NC(=O)[C@H](CCCNC(=N)N)NC1=O [DX-524] (Ac-GSRIGCRDSRCNWWAPGEGGG-NH2; disulfide 6-11)	+++ (signifies strong inhibition (˜99% inhibition at ˜100 μM; with IC50 between 0.4-1 μM))
CC(=O)NCC(=O)N[C@@H](CO)C(=O)N[C@@H](CCCNC(=N)N)C(=O)NCC(=O)N[C@@H](Cc1ccccc1)C(=O)N[C@H]1CSSC[C@@H](C(=O)N[C@@H](CO)C(=O)N[C@@H](Cc2ccccc2)C(=O)N2CCC[C@H]2C(=O)N[C@@H](C)C(=O)N2CCC[C@H]2C(=O)NCC(=O)N[C@@H](CCC(=O)O)C(=O)NCC(=O)NCC(=O)NCC(N)=O)NC(=O)[C@H](CO)NC(=O)[C@H](CO)NC(=O)[C@H](CC(=O)O)NC(=O)[C@H](CCCNC(=N)N)NC1=O [DX-525] (Ac-GSRGFCRDSSCSFPAPGEGGG-NH2; disulfide 6-11)	+++ (signifies strong inhibition (˜99% inhibition at ˜100 μM; with IC50 between 0.4-1 μM))
CSCC[C@@H]1NC(=O)[C@H](CCSC)NC(=O)[C@@H]2CCCN2C(=O)[C@H](C)NC(=O)[C@H](Cc2c[nH]c3ccccc23)NC(=O)[C@H](Cc2c[nH]cn2)NC(=O)[C@@H](NC(=O)[C@@H](NC(=O)[C@H](CCC(=O)O)NC(=O)[C@H](Cc2c[nH]c3ccccc23)NC(=O)CNC(=O)[C@H](C)NC(C)=O)C(C)C)CSSC[C@@H](C(=O)N[C@@H](CCCCN)C(=O)N[C@@H](Cc2c[nH]cn2)C(=O)NCC(=O)NCC(=O)N[C@H](C(=O)N[C@@H](CCC(=O)O)C(=O)NCC(=O)NCC(=O)NCC(N)=O)[C@@H](C)O)NC1=O [DX-529] (Ac-AGWEVCHWAPMMCKHGGTEGGG-NH2; disulfide 6-13)	+++ (signifies strong inhibition (˜99% inhibition at ˜100 μM; with IC50 between 0.4-1 μM))
CC(=O)N[C@@H](C)C(=O)NCC(=O)N[C@@H](CO)C(=O)N[C@@H](CC(=O)O)C(=O)N[C@@H](Cc1c[nH]c2ccccc12)C(=O)N[C@H]1CSSC[C@@H](C(=O)N[C@@H](Cc2ccccc2)C(=O)N[C@@H](Cc2c[nH]cn2)C(=O)N[C@@H](CCC(N)=O)C(=O)NCC(=O)N[C@H](C(=O)N[C@@H](CCC(=O)O)C(=O)NCC(=O)NCC(=O)NCC(N)=O)[C@@H](C)O)NC(=O)[C@@H]2CCCN2C(=O)[C@H](CC(N)=O)NC(=O)[C@H](CC(N)=O)NC(=O)[C@H](Cc2c[nH]c3ccccc23)NC(=O)[C@H]([C@@H](C)O)NC(=O)CNC1=O [DX-531] (Ac-AGSDWCGTWNNPCFHQGTEGGG-NH2; disulfide 6-13)	+++ (signifies strong inhibition (˜99% inhibition at ˜100 μM; with IC50 between 0.4-1 μM))
CC(=O)NCC(=O)N[C@@H](CC(=O)O)C(=O)N[C@@H](CCCNC(=N)N)C(=O)N[C@@H](Cc1ccc(O)cc1)C(=O)N[C@@H](CC(C)C)C(=O)N[C@H]1CSSC[C@@H](C(=O)N[C@@H](CC(N)=O)C(=O)N[C@@H](Cc2c[nH]c3ccccc23)C(=O)N[C@@H](Cc2ccccc2)C(=O)N[C@@H](CC(=O)O)C(=O)N2CCC[C@H]2C(=O)N[C@@H](CCC(=O)O)C(=O)NCC(=O)NCC(=O)NCC(N)=O)NC(=O)[C@H](Cc2ccccc2)NC(=O)[C@H](CCCCN)NC(=O)[C@H](Cc2c[nH]c3ccccc23)NC(=O)[C@@H]2CCCN2C(=O)[C@H](CCCCN)NC(=O)[C@H](CC(=O)O)NC(=O)[C@H](CCCNC(=N)N)NC(=O)[C@H](CCC(N)=O)NC(=O)[C@@H]2CCCN2C(=O)[C@H](CC(C)C)NC1=O [DX-599] (Ac-GDRYLCLPQRDKPWKFCNWFDPEGGG-NH2; disulfide 6-17)	++++ (signifies very strong inhibition (˜100% inhibition at 100 μM; with IC50 0.15 μM))
CC(=O)NCC(=O)N[C@@H](CC(=O)O)C(=O)N[C@@H](Cc1ccc(O)cc1)C(=O)N[C@@H](CO)C(=O)N[C@@H](Cc1c[nH]cn1)C(=O)N[C@H]1CSSC[C@@H](C(=O)N[C@H](C(=O)N[C@@H](Cc2ccc(O)cc2)C(=O)N2CCC[C@H]2C(=O)N[C@@H](CC(=O)O)C(=O)N2CCC[C@H]2C(=O)N[C@@H](CCC(=O)O)C(=O)NCC(=O)NCC(=O)NCC(N)=O)[C@@H](C)O)NC(=O)[C@H](CCCCN)NC(=O)[C@H](Cc2c[nH]c3ccccc23)NC(=O)[C@H](Cc2c[nH]c3ccccc23)NC(=O)[C@@H]2CCCN2C(=O)[C@H](Cc2ccc(O)cc2)NC(=O)[C@H](Cc2ccc(O)cc2)NC(=O)[C@H](CCCNC(=N)N)NC(=O)[C@H](CC(C)C)NC(=O)[C@@H]2CCCN2C(=O)[C@H](CO)NC1=O [DX-600]	++++ (signifies very strong inhibition (˜100% inhibition at 100 μM; with IC50 0.15 μM))
CC[C@H](C)[C@@H]1NC(=O)[C@@H]2CCCN2C(=O)[C@H](CO)NC(=O)[C@@H](NC(=O)[C@@H](NC(=O)[C@H](Cc2ccccc2)NC(=O)CNC(=O)[C@H](CC(=O)O)NC(=O)CNC(C)=O)[C@@H](C)O)CSSC[C@@H](C(=O)N[C@@H](CC(=O)O)C(=O)N[C@@H](CC(C)C)C(=O)NCC(=O)N[C@@H](CC(=O)O)C(=O)N2CCC[C@H]2C(=O)N[C@@H](CCC(=O)O)C(=O)NCC(=O)NCC(=O)NCC(N)=O)NC(=O)[C@H](CCCNC(=N)N)NC(=O)[C@H](Cc2ccccc2)NC(=O)[C@H](Cc2c[nH]c3ccccc23)NC(=O)[C@@H]2CCCN2C(=O)[C@H](Cc2ccccc2)NC(=O)[C@H](CCSC)NC(=O)[C@H](CCCNC(=N)N)NC1=O [DX-601] (Ac-GDGFTCSPIRMFPWFRCDLGDPEGGG-NH2; disulfide 6-17)	++++ (signifies very strong inhibition (˜100% inhibition at 100 μM; with IC50 0.15 μM))
CC(=O)NCC(=O)N[C@@H](CC(=O)O)C(=O)N[C@@H](Cc1ccccc1)C(=O)N[C@@H](CO)C(=O)N1CCC[C@H]1C(=O)N[C@H]1CSSC[C@@H](C(=O)N2CCC[C@H]2C(=O)N[C@@H](CO)C(=O)NCC(=O)N[C@@H](CC(=O)O)C(=O)N2CCC[C@H]2C(=O)N[C@@H](CCC(=O)O)C(=O)NCC(=O)NCC(=O)NCC(N)=O)NC(=O)[C@H](C(C)C)NC(=O)[C@H](Cc2c[nH]c3ccccc23)NC(=O)[C@H](Cc2c[nH]c3ccccc23)NC(=O)[C@@H]2CCCN2C(=O)[C@H](CO)NC(=O)[C@H](Cc2c[nH]cn2)NC(=O)[C@H](CCCNC(=N)N)NC(=O)[C@H](CC(C)C)NC(=O)[C@H](C)NC(=O)[C@H](CCCCN)NC1=O [DX-602] (Ac-GDFSPCKALRHSPWWVCPSGDPEGGG-NH2; disulfide 6-17)	++++ (signifies very strong inhibition (˜100% inhibition at 100 μM; with IC50 0.15 μM))
